Read-outs that look alike come from different tables or passages of the source. Starred links: 1 amine or outer side, 2 acyl side, 3 side chain; linkers in the order of their positions; H or OH if unused. Positions of bridges follow the written chain, without caps; N, C: chain ends. Residues, ends and D or L forms follow the SMILES beside them. *: point of attachment. C20 diacid = O=C(O)CCCCCCCCCCCCCCCCCCC(=O)*; γGlu = O=C(O)[C@H](CCC(=O)[*:2])N[*:1]
Legend:
[1] = Assay (I) efficacy testing on appetite (food intake), ad libitum fed rat model; type: in vivo, Sprague Dawley (SD) rats; details: 3 nmol/kg
In short: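 Ad libitum fed SD rats (200-250 g) on a reversed light cycle, housed individually, received a single 0.01-3 mg/kg dose ip, po or sc just before lights-off. Individual food intake recorded hourly for 7 h, then at 24 h and sometimes 48 h, versus vehicle; Grubbs outliers excluded.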

[2] = Assay (III) ThT fibrillation assay for physical stability; type: physicochemical; details: for Th T pH 4.0 lag time (h): 37° C., orbital shaking 960 rpm; for ThT pH 4.0 lag time: Table 9
In short: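 Freshly prepared samples, pH adjusted with NaOH and HClO4 or HCl, received ThT at 1 μM final and were incubated at 37° C with orbital shaking at 960 rpm. Fluorescence (ex 444 nm, em 485 nm) was read every 20 minutes; […], with polypeptide concentration by reverse HPLC before and after.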

[3] = test system: amylin receptor versus calcitonin receptor; details: cited from earlier work

Th T pH 4.0 lag time (h) [2] [h] | ThT pH 4.0 lag time [2] [hr] | Compound | Food intake reduction 0-24 h 3 nmol/kg (%) [1] [%] | Food intake reduction 24-48 h 3 nmol/kg (%) [1] [%] | times more potent on the amylin receptor than on the calcitonin receptor [3] [times] | times more potent on the amylin receptor than on the calcitonin receptor ([3]; listed as Pramlintide)
>45 | >45 | CC[C@H](C)[C@H](NC(=O)[C@@H]1CCCN1C(=O)CNC(=O)[C@H](Cc1ccccc1)NC(=O)[C@H](CC(N)=O)NC(=O)[C@H](CC(N)=O)NC(=O)[C@H](CO)NC(=O)[C@H](CO)NC(=O)[C@H](Cc1c[nH]cn1)NC(=O)[C@H](CCCNC(=N)N)NC(=O)[C@H](CC(C)C)NC(=O)[C@H](Cc1ccccc1)NC(=O)[C@H](CCC(=O)O)NC(=O)[C@H](C)NC(=O)[C@H](CC(C)C)NC(=O)[C@H](CCCNC(=N)N)NC(=O)[C@H](CCC(N)=O)NC(=O)[C@@H](NC(=O)[C@H](C)NC(=O)[C@@H]1CSSC[C@H](NC(=O)[C@H](CCCCN)NC(=O)CC[C@H](NC(=O)CCCCCCCCCCCCCCCCCCC(=O)O)C(=O)O)C(=O)N[C@@H](CC(N)=O)C(=O)N[C@@H]([C@@H](C)O)C(=O)N[C@@H](C)C(=O)N[C@@H]([C@@H](C)O)C(=O)N1)[C@@H](C)O)C(=O)N[C@@H](CC(C)C)C(=O)N1CCC[C@H]1C(=O)N1CCC[C@H]1C(=O)N[C@H](C(=O)N[C@@H](CC(N)=O)C(=O)N[C@H](C(=O)NCC(=O)N[C@@H](CO)C(=O)N[C@@H](CC(N)=O)C(=O)N[C@H](C(=O)N1CCC[C@H]1C(N)=O)[C@@H](C)O)C(C)C)[C@@H](C)O [Example 53, N-alpha-[(S)-4-Carboxy-4-(19-carboxynonadecanoylamino)butyryl]-[Glu14, Arg17, Pro37]-pramlintide] | 40 | 28 |  | 
>45 | >45 | CC[C@H](C)[C@H](NC(=O)[C@@H]1CCCN1C(=O)CNC(=O)[C@H](Cc1ccccc1)NC(=O)[C@H](CC(N)=O)NC(=O)[C@H](CC(N)=O)NC(=O)[C@H](CO)NC(=O)[C@H](CO)NC(=O)[C@H](Cc1c[nH]cn1)NC(=O)[C@H](CCCNC(=N)N)NC(=O)[C@H](CC(C)C)NC(=O)[C@H](Cc1ccccc1)NC(=O)[C@H](CCC(=O)O)NC(=O)[C@H](C)NC(=O)[C@H](CC(C)C)NC(=O)[C@H](CCCNC(=N)N)NC(=O)[C@H](CCC(N)=O)NC(=O)[C@@H](NC(=O)[C@H](C)NC(=O)[C@@H]1CSSC[C@H](NC(=O)[C@H](Cc2c[nH]cn2)NC(=O)CNC(=O)CC[C@H](NC(=O)CCCCCCCCCCCCCCCCCCC(=O)O)C(=O)O)C(=O)N[C@@H](CC(N)=O)C(=O)N[C@@H]([C@@H](C)O)C(=O)N[C@@H](C)C(=O)N[C@@H]([C@@H](C)O)C(=O)N1)[C@@H](C)O)C(=O)N[C@@H](CC(C)C)C(=O)N1CCC[C@H]1C(=O)N1CCC[C@H]1C(=O)N[C@H](C(=O)N[C@@H](CC(N)=O)C(=O)N[C@H](C(=O)NCC(=O)N[C@@H](CO)C(=O)N[C@@H](CC(N)=O)C(=O)N[C@H](C(=O)N1CCC[C@H]1C(N)=O)[C@@H](C)O)C(C)C)[C@@H](C)O [Example 89, N-alpha-[(S)-4-Carboxy-4-(19-carboxynonadecanoylamino)butyryl]-Gly-[His1, Glu14, Arg17, Pro37]-pramlintide] ({C20 diacid-γGlu}-GHCNTATCATQRLAEFLRHSSNNFGPILPPTNVGSNTP-NH2; disulfide 3-8) | 42 | 23 |  | 
>45 | >45 | CC[C@H](C)[C@H](NC(=O)[C@@H]1CCCN1C(=O)CNC(=O)[C@H](Cc1ccccc1)NC(=O)[C@H](CC(N)=O)NC(=O)[C@H](CC(N)=O)NC(=O)[C@H](CO)NC(=O)[C@H](CO)NC(=O)[C@H](Cc1c[nH]cn1)NC(=O)[C@H](Cc1c[nH]cn1)NC(=O)[C@H](CC(C)C)NC(=O)[C@H](Cc1ccccc1)NC(=O)[C@H](CCC(=O)O)NC(=O)[C@H](C)NC(=O)[C@H](CC(C)C)NC(=O)[C@H](CCCNC(=N)N)NC(=O)[C@H](CCC(N)=O)NC(=O)[C@@H](NC(=O)[C@H](C)NC(=O)[C@@H]1CSSC[C@H](NC(=O)[C@H](CCCNC(=N)N)NC(=O)CC[C@H](NC(=O)CCCCCCCCCCCCCCCCCCC(=O)O)C(=O)O)C(=O)N[C@@H](CC(N)=O)C(=O)N[C@@H]([C@@H](C)O)C(=O)N[C@@H](C)C(=O)N[C@@H]([C@@H](C)O)C(=O)N1)[C@@H](C)O)C(=O)N[C@@H](CC(C)C)C(=O)N1CCC[C@H]1C(=O)N1CCC[C@H]1C(=O)N[C@H](C(=O)N[C@@H](CC(N)=O)C(=O)N[C@H](C(=O)NCC(=O)N[C@@H](CO)C(=O)N[C@@H](CC(N)=O)C(=O)N[C@H](C(=O)N1CCC[C@H]1C(N)=O)[C@@H](C)O)C(C)C)[C@@H](C)O [Example 96, N-alpha-[(S)-4-Carboxy-4-(19-carboxynonadecanoylamino)butyryl]-[Arg1, Glu14, His17, Pro37]-pramlintide] ({C20 diacid-γGlu}-RCNTATCATQRLAEFLHHSSNNFGPILPPTNVGSNTP-NH2; disulfide 2-7) | 69 | 89 |  | 
>45 | >45 | CC[C@H](C)[C@H](NC(=O)[C@@H]1CCCN1C(=O)CNC(=O)[C@H](Cc1ccccc1)NC(=O)[C@H](CC(N)=O)NC(=O)[C@H](CC(N)=O)NC(=O)[C@H](CO)NC(=O)[C@H](CO)NC(=O)[C@H](Cc1c[nH]cn1)NC(=O)[C@H](Cc1c[nH]cn1)NC(=O)[C@H](CC(C)C)NC(=O)[C@H](Cc1ccccc1)NC(=O)[C@H](CCC(=O)O)NC(=O)[C@H](C)NC(=O)[C@H](CC(C)C)NC(=O)[C@H](CCCNC(=N)N)NC(=O)[C@H](CCC(N)=O)NC(=O)[C@@H](NC(=O)[C@H](C)NC(=O)[C@@H]1CSSC[C@H](NC(=O)[C@H](CCCNC(=N)N)NC(=O)CNC(=O)CC[C@H](NC(=O)CCCCCCCCCCCCCCCCCCC(=O)O)C(=O)O)C(=O)N[C@@H](CC(N)=O)C(=O)N[C@@H]([C@@H](C)O)C(=O)N[C@@H](C)C(=O)N[C@@H]([C@@H](C)O)C(=O)N1)[C@@H](C)O)C(=O)N[C@@H](CC(C)C)C(=O)N1CCC[C@H]1C(=O)N1CCC[C@H]1C(=O)N[C@H](C(=O)N[C@@H](CC(N)=O)C(=O)N[C@H](C(=O)NCC(=O)N[C@@H](CO)C(=O)N[C@@H](CC(N)=O)C(=O)N[C@H](C(=O)N1CCC[C@H]1C(N)=O)[C@@H](C)O)C(C)C)[C@@H](C)O [Example 101, N-alpha-[(S)-4-Carboxy-4-(19-carboxynonadecanoylamino)butyryl]-Gly-[Arg1, Glu14, His17, Pro37]-pramlintide] ({C20 diacid-γGlu}-GRCNTATCATQRLAEFLHHSSNNFGPILPPTNVGSNTP-NH2; disulfide 3-8 (inferred); C-terminus assumed) | 70 | 90 |  | 
 |  | pramlintide |  |  | 14 | approximately 14 times

Reference: patent publication US9029325B2, “Amylin analogues and pharmaceutical compositions thereof” (Novo Nordisk A/S, priority 2011, dated 2015)
